# Results as given in patent US20260285850A1, “SUBSTITUTED OXAZOLIDINONES AND IMIDAZOLINONES AS HERBICIDES” (FMC CORPORATION, priority 2023, published 2026).
# How the values were obtained:
# Assay type in all cases: in vivo
# [1] = tested on: barnyardgrass (Echinochloa crus-galli); experiment: Test A preemergence soil spray, visual injury rating 0-100; conditions: 10 days, 0 = no effect, 100 = complete control
# Excerpt: (§1) Seeds of plant species selected from barnyardgrass (Echinochloa crus-galli), blackgrass (Alopecurus myosuroides), corn (Zea mays), foxtail, giant (giant foxtail, Setaria faberi), green foxtail (Setaria viridis), goosegrass (Eleusine indica), kochia (Bassia scoparia), oat, wild (wild oat, Avena fatua), palmer (palmer amaranth, palmer pigweed, Amaranthus palmeri), ragweed (common ragweed, Ambrosia artemisiifolia), ryegrass, Italian (italian ryegrass, Lolium multiflorum), soybean (Glycine max) and wheat (Triticum aestivum) were planted into a blend of loam soil and sand and treated preemergence with a directed soil spray using test chemicals formulated in a non-phytotoxic solvent mixture which included a surfactant.
# (§2) At the same time, plants selected from these crops and weed species and also galium (catchweed bedstraw, Galium aparine) and horseweed (Erigeron canadensis) were planted in pots containing the same blend of loam soil and sand and treated with postemergence applications of test chemicals formulated in the same manner. Plants ranged in height from 2 to 10 cm and were in the one- to two-leaf stage for the postemergence treatment. Treated plants and untreated controls were maintained in a greenhouse for 10 days, after which time all treated plants were compared to untreated controls and visually evaluated for injury. Plant response ratings, summarized in Table A, are based on a 0 to 100 scale where 0 is no effect and 100 is complete control. A dash (-) response means no test result.
# [2] = tested on: blackgrass (Alopecurus myosuroides); experiment: as above; conditions: 10 days, 0 = no effect, 100 = complete control
# Excerpt: as §1, §2
# corn (Zea mays) [3] = experiment: as above; conditions: 10 days, 0 = no effect, 100 = complete control
# Excerpt: as §1, §2
# [4] = tested on: green foxtail (Setaria viridis); experiment: as above; conditions: 10 days, 0 = no effect, 100 = complete control
# Excerpt: as §1, §2
# kochia (Bassia scoparia) [5] = experiment: as above; conditions: 10 days, 0 = no effect, 100 = complete control
# Excerpt: as §1, §2
# [6] = tested on: oat, wild (wild oat, Avena fatua); experiment: as above; conditions: 10 days, 0 = no effect, 100 = complete control
# Excerpt: as §1, §2
# [7] = tested on: palmer (palmer amaranth, palmer pigweed, Amaranthus palmeri); experiment: as above; conditions: 10 days, 0 = no effect, 100 = complete control
# Excerpt: as §1, §2
# [8] = tested on: ragweed (common ragweed, Ambrosia artemisiifolia); experiment: as above; conditions: 10 days, 0 = no effect, 100 = complete control
# Excerpt: as §1, §2
# [9] = tested on: ryegrass, Italian (italian ryegrass, Lolium multiflorum); experiment: as above; conditions: 10 days, 0 = no effect, 100 = complete control
# Excerpt: as §1, §2
# soybean (Glycine max) [10] = experiment: as above; conditions: 10 days, 0 = no effect, 100 = complete control
# Excerpt: as §1, §2
# [11] = tested on: wheat (Triticum aestivum); experiment: as above; conditions: 10 days, 0 = no effect, 100 = complete control
# Excerpt: as §1, §2
# [12] = tested on: barnyardgrass (Echinochloa crus-galli); experiment: Test A postemergence application, visual injury rating 0-100; conditions: 10 days
# Excerpt: as §1, §2
# [13] = tested on: blackgrass (Alopecurus myosuroides); experiment: as above; conditions: 10 days
# Excerpt: as §1, §2
# corn (Zea mays) [14] = experiment: as above; conditions: 10 days
# Excerpt: as §1, §2
# [15] = tested on: green foxtail (Setaria viridis); experiment: as above; conditions: 10 days
# Excerpt: as §1, §2
# [16] = tested on: horseweed (Erigeron canadensis); experiment: as above; conditions: 10 days
# Excerpt: as §1, §2
# kochia (Bassia scoparia) [17] = experiment: as above; conditions: 10 days
# Excerpt: as §1, §2
# [18] = tested on: oat, wild (wild oat, Avena fatua); experiment: as above; conditions: 10 days
# Excerpt: as §1, §2
# [19] = tested on: palmer (palmer amaranth, palmer pigweed, Amaranthus palmeri); experiment: as above; conditions: 10 days
# Excerpt: as §1, §2
# [20] = tested on: ragweed (common ragweed, Ambrosia artemisiifolia); experiment: as above; conditions: 10 days
# Excerpt: as §1, §2
# [21] = tested on: ryegrass, Italian (italian ryegrass, Lolium multiflorum); experiment: as above; conditions: 10 days
# Excerpt: as §1, §2
# soybean (Glycine max) [22] = experiment: as above; conditions: 10 days
# Excerpt: as §1, §2
# [23] = tested on: wheat (Triticum aestivum); experiment: as above; conditions: 10 days
# Excerpt: as §1, §2
# [24] = tested on: barnyardgrass (Echinochloa crusgalli); experiment: Test B flooded paddy test, visual plant response rating 0-100; conditions: 250 g ai/ha, Flood, applied to paddy water, evaluated after 13 days
# Protocol: (§3) Plant species in the flooded paddy test selected from barnyardgrass (Echinochloa crusgalli), ducksalad (Heteranthera limosa), rice (Oryza sativa), and sedge, umbrella (small-flower umbrella sedge, Cyperus difformis) were grown to the 2-leaf stage for testing. At time of treatment, test pots were flooded to 3 cm above the soil surface, treated by application of test compounds directly to the paddy water, and then maintained at that water depth for the duration of the test. Treated plants and controls were maintained in a greenhouse for 13 days, after which time all species were compared to controls and visually evaluated. […] A dash (-) response means no test result.
# [25] = tested on: ducksalad (Heteranthera limosa); experiment: as above; conditions: 250 g ai/ha, Flood, applied to paddy water, evaluated after 13 days
# Protocol: as §3
# rice (Oryza sativa) = experiment: as above; conditions: 250 g ai/ha, Flood, applied to paddy water, evaluated after 13 days
# Protocol: as §3
# [26] = tested on: sedge, umbrella (small-flower umbrella sedge, Cyperus difformis); experiment: as above; conditions: 250 g ai/ha, Flood, applied to paddy water, evaluated after 13 days
# Protocol: as §3
# [27] = 31 g ai/ha, postemergence, 0 = no effect, 100 = complete control
# [28] = Postemergence, 125 g ai/ha, 0 is no effect, 100 is complete control
structure (smiles),measurement,setting,value
CC1(C(=O)NC2CCC(C(=O)O)C2)CN(c2cc(F)cc(F)c2)C(=O)O1 (centres unmarked) [Compound 9],Barnyardgrass plant response rating (0-100),[1]; 31 g ai/ha,0
same,Barnyardgrass plant response rating (0 to 100 scale),[1]; 125 g ai/ha,50
same,Blackgrass plant response rating (0-100),[2]; 31 g ai/ha,0
same,Blackgrass plant response rating (0 to 100 scale),[2]; 125 g ai/ha,80
same,Corn plant response rating (0-100),corn (Zea mays) [3]; 31 g ai/ha,10
same,Corn plant response rating (0 to 100 scale),corn (Zea mays) [3]; 125 g ai/ha,80
same,"Foxtail, Green plant response rating (0-100)",[4]; 31 g ai/ha,0
same,"Foxtail, Green plant response rating (0 to 100 scale)",[4]; 125 g ai/ha,90
same,Kochia plant response rating (0-100),kochia (Bassia scoparia) [5]; 31 g ai/ha,0
same,Kochia plant response rating (0 to 100 scale),kochia (Bassia scoparia) [5]; 125 g ai/ha,30
same,"Oat, Wild plant response rating (0-100)",[6]; 31 g ai/ha,0
same,"Oat, Wild plant response rating (0 to 100 scale)",[6]; 125 g ai/ha,90
same,"Amaranth, Palmer plant response rating (0-100)",[7]; 31 g ai/ha,0
same,"Amaranth, Palmer plant response rating (0 to 100 scale)",[7]; 125 g ai/ha,10
same,Ragweed plant response rating (0-100),[8]; 31 g ai/ha,0
same,Ragweed plant response rating (0 to 100 scale),[8]; 125 g ai/ha,0
same,"Ryegrass, Italian plant response rating (0-100)",[9]; 31 g ai/ha,0
same,"Ryegrass, Italian plant response rating (0 to 100 scale)",[9]; 125 g ai/ha,90
same,Soybean plant response rating (0-100),soybean (Glycine max) [10]; 31 g ai/ha,0
same,Soybean plant response rating (0 to 100 scale),soybean (Glycine max) [10]; 125 g ai/ha,80
same,Wheat plant response rating (0-100),[11]; 31 g ai/ha,80
same,Wheat plant response rating (0 to 100 scale),[11]; 125 g ai/ha,90
same,Barnyardgrass plant response rating (0-100),[12]; [27],70
same,Barnyardgrass plant response rating (0 to 100 scale),[12]; [28],100
same,Blackgrass plant response rating (0-100),[13]; [27],60
same,Blackgrass plant response rating (0 to 100 scale),[13]; [28],70
same,Corn plant response rating (0-100),corn (Zea mays) [14]; [27],20
same,Corn plant response rating (0 to 100 scale),corn (Zea mays) [14]; [28],100
same,"Foxtail, Green plant response rating (0-100)",[15]; [27],30
same,"Foxtail, Green plant response rating (0 to 100 scale)",[15]; [28],90
same,Horseweed plant response rating (0-100),[16]; [27],0
same,Horseweed plant response rating (0 to 100 scale),[16]; [28],10
same,Kochia plant response rating (0-100),kochia (Bassia scoparia) [17]; [27],50
same,Kochia plant response rating (0 to 100 scale),kochia (Bassia scoparia) [17]; [28],80
same,"Oat, Wild plant response rating (0-100)",[18]; [27],90
same,"Oat, Wild plant response rating (0 to 100 scale)",[18]; [28],90
same,"Amaranth, Palmer plant response rating (0-100)",[19]; [27],10
same,"Amaranth, Palmer / Pigweed, Palmer plant response rating (0 to 100 scale)",[19]; [28],90
same,Ragweed plant response rating (0-100),[20]; [27],0
same,Ragweed plant response rating (0 to 100 scale),[20]; [28],0
same,"Ryegrass, Italian plant response rating (0-100)",[21]; [27],50
same,"Ryegrass, Italian plant response rating (0 to 100 scale)",[21]; [28],80
same,Soybean plant response rating (0-100),soybean (Glycine max) [22]; [27],60
same,Soybean plant response rating (0 to 100 scale),soybean (Glycine max) [22]; [28],70
same,Wheat plant response rating (0-100),[23]; [27],90
same,Wheat plant response rating (0 to 100 scale),[23]; [28],90
same,"Plant response rating, Barnyardgrass (0 to 100 scale, 0 is no effect and 100 is complete control)",[24],0
same,"Plant response rating, Ducksalad (0 to 100 scale, 0 is no effect and 100 is complete control)",[25],0
same,"Plant response rating, Rice (0 to 100 scale, 0 is no effect and 100 is complete control)",rice (Oryza sativa),0
same,"Plant response rating, Sedge, Umbrella (0 to 100 scale, 0 is no effect and 100 is complete control)",[26],0
